From ChEMBL document CHEMBL5329193, “Targeting Mycobacterium tuberculosis iron-scavenging tools: a recent update on siderophores inhibitors” (RSC Med Chem, 2023)
≈ marks a conversion by molar mass, not a printed value.

What was measured:
[1] = system: Mycobacterium tuberculosis; test: Antimycobacterial activity against Mycobacterium tuberculosis assessed as inhibition of bacterial growth incubated for 7 days by broth dilution method; type: functional; details: 168 h, time 7 day
[2] = Inhibition of recombinant Mycobacterium tuberculosis salicylate synthase by fluorimetric assay
[3] = system: Mycobacterium tuberculosis; test: Antimycobacterial activity against Mycobacterium tuberculosis H37Rv assessed as reduction in bacterial growth after 7 days by resazurin based fluorescence assay; type: functional, organism-based; details: 168 h
[4] = Inhibition of Mycobacterium tuberculosis IdeR assessed as reduction in IdeR DNA binding activity by electrophoretic mobility shift assay
[5] = system: Mycobacterium tuberculosis; test: Antimycobacterial activity against Mycobacterium tuberculosis assessed as reduction in bacterial growth measured after 7 days by fluorescence microplate analysis; type: functional, organism-based; details: 168 h; for MIC: time 7 day
[6] = Binding affinity to Mycobacterium tuberculosis salicylate synthase using chorismic acid as substrate in presence of MgCl2 by fluorimetric assay
[7] = target: T1, Enoyl-[acyl-carrier-protein] reductase [NADH] (Mycobacterium tuberculosis, UniProt P9WGR1); test: Binding affinity to Mycobacterium tuberculosis InhA assessed as inhibition constant
T1 sequence (P9WGR1 whole entry): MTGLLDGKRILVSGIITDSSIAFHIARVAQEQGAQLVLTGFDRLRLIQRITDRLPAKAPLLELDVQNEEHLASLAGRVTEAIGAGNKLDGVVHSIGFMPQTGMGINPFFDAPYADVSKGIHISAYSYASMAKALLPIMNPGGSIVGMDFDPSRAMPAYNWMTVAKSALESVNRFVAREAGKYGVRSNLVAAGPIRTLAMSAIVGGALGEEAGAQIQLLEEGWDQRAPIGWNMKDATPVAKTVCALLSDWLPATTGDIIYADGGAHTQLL

[8] = system: Mycobacterium tuberculosis; test: Antitubercular activity against Mycobacterium tuberculosis H37Rv assessed as reduction in microbial growth by broth dilution method; type: functional, organism-based
[9] = system: Mycobacterium tuberculosis; test: Antitubercular activity against Mycobacterium tuberculosis H37Rv ATCC 25618 assessed as reduction in bacterial growth; type: functional
[10] = system: Mycobacterium tuberculosis; test: Antimycobacterial activity against Mycobacterium tuberculosis H37Rv assessed as inhibition of bacterial growth incubated for 7 days by broth dilution method; type: functional; details: 168 h, time 7 day
[11] = system: Mycolicibacterium smegmatis; test: Antimycobacterial activity against Mycobacterium smegmatis assessed as bacterial growth inhibition incubated for 48 hrs by resazurin dye based assay; type: functional
[12] = target: T2, Trehalose monomycolate exporter MmpL3 (Mycolicibacterium smegmatis, UniProt A0QP27); test: Binding affinity to Mycobacterium smegmatis MmpL3 by surface plasmon resonance assay
T2 sequence (A0QP27 whole entry): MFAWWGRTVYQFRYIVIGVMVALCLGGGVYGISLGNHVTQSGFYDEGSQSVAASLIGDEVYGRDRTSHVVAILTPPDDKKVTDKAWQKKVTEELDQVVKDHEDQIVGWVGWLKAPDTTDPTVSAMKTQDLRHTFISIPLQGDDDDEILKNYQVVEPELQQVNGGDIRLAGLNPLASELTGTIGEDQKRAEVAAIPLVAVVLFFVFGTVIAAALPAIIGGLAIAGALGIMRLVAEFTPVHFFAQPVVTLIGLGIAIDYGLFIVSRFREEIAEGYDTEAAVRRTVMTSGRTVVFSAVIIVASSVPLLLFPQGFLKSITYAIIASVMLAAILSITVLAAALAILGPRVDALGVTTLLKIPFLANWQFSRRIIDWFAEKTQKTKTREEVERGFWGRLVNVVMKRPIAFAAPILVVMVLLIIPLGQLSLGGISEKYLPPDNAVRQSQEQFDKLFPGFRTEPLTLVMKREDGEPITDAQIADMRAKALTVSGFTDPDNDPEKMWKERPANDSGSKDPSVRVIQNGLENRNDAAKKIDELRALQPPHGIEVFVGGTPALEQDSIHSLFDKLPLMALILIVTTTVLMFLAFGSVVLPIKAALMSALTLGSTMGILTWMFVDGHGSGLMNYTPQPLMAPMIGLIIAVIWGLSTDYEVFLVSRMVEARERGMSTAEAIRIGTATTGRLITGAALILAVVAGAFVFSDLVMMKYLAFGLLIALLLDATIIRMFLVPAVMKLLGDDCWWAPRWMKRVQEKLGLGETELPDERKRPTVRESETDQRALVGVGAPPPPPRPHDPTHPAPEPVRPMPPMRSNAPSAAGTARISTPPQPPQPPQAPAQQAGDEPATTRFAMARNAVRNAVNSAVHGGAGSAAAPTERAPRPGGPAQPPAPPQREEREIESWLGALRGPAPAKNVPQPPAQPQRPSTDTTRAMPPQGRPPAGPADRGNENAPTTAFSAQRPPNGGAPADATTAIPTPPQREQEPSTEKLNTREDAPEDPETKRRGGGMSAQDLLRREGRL

[13] = system: Mycolicibacterium smegmatis; test: Antimycobacterial activity against Mycobacterium smegmatis ATCC 607 assessed as bacterial growth inhibition incubated for 48 hrs by resazurin dye based assay; type: functional
[14] = system: Mycobacterium tuberculosis; test: Antitubercular activity against Mycobacterium tuberculosis XDR-FJ05195 assessed as inhibition of bacterial growth incubated for 14 days by microplate alamar blue assay; type: functional; details: XDR-FJ05195, 336 h, time 14 day
[15] = system: Mycobacterium tuberculosis; test: Antimycobacterial activity against Mycobacterium tuberculosis H37Rv by green fluorescent protein microplate assay; type: functional
[16] = system: Mycobacterium tuberculosis; test: Antibacterial activity against Mycobacterium tuberculosis H37Rv assessed as reduction in bacterial growth incubated for 7 to 14 days by broth microdilution method; type: functional; details: time 7-14 day
[17] = system: Mycobacterium tuberculosis; test: Antibacterial activity against Mycobacterium tuberculosis H37Rv assessed as reduction in bacterial growth incubated for 7 to 14 days; type: functional; details: time 7-14 day
[18] = target: T3, Salicyl-AMP ligase / salicyl-S-ArCP synthetase (Mycobacterium tuberculosis, UniProt P71716); test: Binding affinity to Mycobacterium tuberculosis H37Rv ATCC 25618 MbtA assessed as apparent binding constant; details: read-out: Ki(app)
T3 sequence (P71716 whole entry): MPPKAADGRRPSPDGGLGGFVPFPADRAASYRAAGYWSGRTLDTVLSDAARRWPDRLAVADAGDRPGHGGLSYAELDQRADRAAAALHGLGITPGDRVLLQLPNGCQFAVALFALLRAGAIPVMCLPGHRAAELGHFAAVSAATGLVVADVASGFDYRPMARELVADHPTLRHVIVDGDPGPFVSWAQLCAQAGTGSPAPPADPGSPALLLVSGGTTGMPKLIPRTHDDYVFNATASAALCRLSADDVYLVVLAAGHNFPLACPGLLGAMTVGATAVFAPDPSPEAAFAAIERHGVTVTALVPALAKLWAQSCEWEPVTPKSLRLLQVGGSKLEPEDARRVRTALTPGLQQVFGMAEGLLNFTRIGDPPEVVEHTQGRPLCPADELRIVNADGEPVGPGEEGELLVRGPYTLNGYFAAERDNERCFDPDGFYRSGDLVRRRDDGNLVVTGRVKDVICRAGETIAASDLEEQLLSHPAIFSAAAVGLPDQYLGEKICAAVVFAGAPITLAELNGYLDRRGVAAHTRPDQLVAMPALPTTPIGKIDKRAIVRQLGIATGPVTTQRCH

[19] = system: Mycobacterium tuberculosis; test: Antibacterial activity against Mycobacterium tuberculosis H37Rv assessed as reduction in bacterial growth; type: functional
[20] = system: Mycobacterium tuberculosis; test: Antimycobacterial activity against intracellular Mycobacterium tuberculosis assessed as reduction in cell growth; type: functional
[21] = system: Mycobacterium tuberculosis; test: Antimycobacterial activity against Mycobacterium tuberculosis H37Rv assessed as reduction in bacterial growth incubated for 5 days by resazurin dye based fluorescence analysis; type: functional; details: 120 h, time 5 day
[22] = Cytotoxicity against mouse RAW264.7 cells assessed as reduction in cell viability incubated for 48 hrs by MTT assay; type: toxicity, cell-based
[23] = system: Mycobacterium tuberculosis; test: Antimycobacterial activity against Mycobacterium tuberculosis H37Ra assessed as reduction in bacterial growth by MABA method; type: functional
[24] = system: Mycobacterium tuberculosis; test: Antimycobacterial activity against Mycobacterium tuberculosis assessed as reduction in bacterial cell growth measured after 24 hrs; type: functional, organism-based
[25] = system: Mycobacterium tuberculosis; test: Antimycobacterial activity against Mycobacterium tuberculosis H37Rv assessed as inhibition of bacterial growth incubated for 5 days by broth microdilution method; type: functional; details: 120 h, time 5 day
[26] = system: Mycobacterium tuberculosis; test: Antimicrobial activity against Mycobacterium tuberculosis H37Rv assessed as reduction in bacterial growth by Alamar Blue fluorescence assay; type: functional

O=C(O)c1ccc(-c2ccc([N+](=O)[O-])cc2Cl)o1
MIC [1]: 21.1 µM (≈ 5.65 µg/mL)

N#Cc1cc([N+](=O)[O-])ccc1-c1ccc(C(=O)O)o1
Ki [2]: 5 µM | IC50 [3]: 24.4 µM

O=C(O)C1(Cc2ccc(O)c(O)c2)NCCS1 (stereo not drawn)
IC50 [4]: 2.4 µg/mL

Nc1ncnc2c1ncn2[C@@H]1O[C@H](CNS(=O)(=O)NC(=O)c2ccccc2O)[C@@H](F)[C@H]1F
MIC [5]: 37 µM (≈ 17.4 µg/mL) | Ki [6]: 0.139 µM

N#Cc1cc(-c2ccc(C(=O)O)o2)cc(C(F)(F)F)c1
Ki [7]: 9 µM | IC50 [8]: 15 µM

O=C(O)c1ccc(-c2ccc(C(F)(F)F)cc2C(F)(F)F)o1
Ki [2]: 8.8 µM

Cc1ccc(S(=O)(=O)C2CC(=O)N(c3ccc(F)c(Cl)c3)C2=O)cc1 (stereo not drawn)
IC50 [4]: 24.3 µg/mL | MIC90 [9]: 17.5 µg/mL (≈ 45.8 µM)

CC=C(Oc1cccc(C(=O)O)c1O)C(=O)O
MIC [10]: > 1 µM | Ki [6]: 11 µM

COc1ncnc2c1ncn2[C@@H]1O[C@H](CNS(=O)(=O)NC(=O)c2ccccc2O)[C@@H](O)[C@H]1O
MIC [11]: 5.3 µg/mL (≈ 11 µM) | Ki [12]: 0.277 µM

O=c1cc(CC2CCCCC2)[nH]c2c(-c3ccc(Cl)cc3)cnn12
MIC [13]: 2.5 µM (≈ 0.855 µg/mL)

CC1CC(=O)c2c(cc(O)cc2C(=O)O)O1 (stereo not drawn)
MIC [1]: 55.8 µM (≈ 12.4 µg/mL)

CCCCCCCCCCCCCCCCC(=O)N(O)CCCC[C@H](NC(=O)[C@@H]1COC(c2ccccc2O)=N1)C(=O)NC[C@H](CC(=O)CCCO[C@H]1O[C@@H]2O[C@@]3(C)CC[C@H]4[C@H](C)CC[C@@H]([C@H]1C)[C@@]24OO3)C(=O)N[C@H]1CCCCN(O)C1=O
MIC [14]: 0.078 µg/mL (≈ 0.0668 µM) | MIC [15]: 0.39 µg/mL (≈ 0.334 µM)

Cc1ccc(-n2sc3ccccc3c2=O)cc1
IC50 [5]: 1.59 µM

C#CCCC(=O)Nc1ccc(C(=O)c2ccc(Nc3nc(N)c4ncn([C@@H]5O[C@H](COS(=O)(=O)NC(=O)c6ccccc6O)[C@@H](O)[C@H]5O)c4n3)cc2)cc1
MIC [16]: 3 µM (≈ 2.27 µg/mL) | MIC [17]: 50 µM (≈ 37.8 µg/mL) | Ki [18]: 0.00094 µM

COC(=O)C(=Cc1ccccc1C(F)(F)F)Oc1cccc(C(=O)OC)c1O
MIC [10]: 25 µM (≈ 9.91 µg/mL) | Ki [6]: 125 µM

CN(C[C@H]1O[C@@H](n2cnc3c(N)ncnc32)[C@H](O)[C@@H]1O)S(=O)(=O)NC(=O)c1ccccc1O
MIC [11]: 0.8 µg/mL (≈ 1.67 µM) | Ki [12]: 0.159 µM

O=S(=O)(O)c1ccc(O)c(NNc2c(O)ccc3ccccc23)c1
IC50 [4]: 1 µg/mL

Nc1ncnc2c1ncn2[C@@H]1O[C@H](CNS(=O)(=O)NC(=O)c2ccccc2O)[C@@H](O)[C@@H]1F
Ki [6]: 0.0018 µM | MIC [19]: 0.15 µM (≈ 0.0701 µg/mL)

Nc1ncnc2c1ncn2[C@@H]1O[C@H](CNS(=O)(=O)NC(=O)c2ccccc2O)[C@H](F)[C@H]1F
MIC [5]: 0.78 µM (≈ 0.366 µg/mL) | Ki [6]: 0.0014 µM

Nc1ncnc2c1ncn2[C@@H]1O[C@H](CNS(=O)(=O)NC(=O)c2ccccc2O)[C@@H](O)[C@H]1F
Ki [6]: 0.0017 µM | MIC [19]: 0.19 µM (≈ 0.0888 µg/mL)

O=[N+]([O-])c1cc(C(F)(F)F)ccc1NCCc1c[nH]c2ccc(O)cc12
IC90 [20]: 9.3 µM | MIC90 [21]: 13 µM (≈ 4.75 µg/mL) | IC50 at 48 h [22]: 29 µM

C[N+](C)(CCCN1c2ccccc2Sc2ccc(Cl)cc21)Cc1ccccc1
MIC [23]: 1.1 µg/mL

CCN(CC)S(=O)(=O)c1cccc(-n2sc3ccccc3c2=O)c1
IC50 [5]: 0.86 µM | IC50 [24]: 0.96 µM

N#Cc1cc(C(F)(F)F)ccc1-c1ccc(C(=O)O)o1
Ki [2]: 5.7 µM | IC50 [3]: 18.5 µM

Nc1ncnc2c1ncn2[C@@H]1O[C@H](COS(=O)(=O)NC(=O)c2ccccc2O)[C@@H](O)[C@H]1O
MIC [25]: 0.5 µg/mL (≈ 1.07 µM) | MIC [26]: 0.39 µg/mL (≈ 0.836 µM) | MIC [16]: 0.39 µM (≈ 0.182 µg/mL) | MIC [17]: 1.56 µM (≈ 0.728 µg/mL)

Nc1ncnc2c1ncn2[C@@H]1O[C@H](CNS(=O)(=O)NC(=O)c2ccccc2O)[C@H](F)[C@H]1O
Ki [6]: 0.0006 µM | MIC [19]: 0.6 µM (≈ 0.28 µg/mL)
